In patent US20240317708A1, “INHIBITORS OF TRANSGLUTAMINASES” (ZEDIRA GMBH, priority 2021, published 2024):

Tests used:
[1] = Log D shake flask method (octanol / PBS pH 7.4, HPLC); assay type: physicochemical; details: octanol/phosphate-buffered saline (PBS); octanol / PBS pH 7.4, shake flask
Description: In order to classify the inventive compounds according to their lipophilicity, Log D values (distribution coefficient) were determined by means of the well-established shake flask method, measuring the partition of a compound between an octanol and phosphate-buffered saline (PBS, pH 7.4) by HPLC.

[2] = target: T1, recombinant human transglutaminase 2 (Homo sapiens, UniProt P21980); experiment: Transglutaminase assay (dansylcadaverine incorporation into dimethylcasein, DCC-assay); assay type: biochemical; details: recombinant human TG2 10 nM, dansylcadaverine/dimethylcasein, 37° C.
T1 construct: purchased Zedira T022
T1 sequence (P21980 1-687): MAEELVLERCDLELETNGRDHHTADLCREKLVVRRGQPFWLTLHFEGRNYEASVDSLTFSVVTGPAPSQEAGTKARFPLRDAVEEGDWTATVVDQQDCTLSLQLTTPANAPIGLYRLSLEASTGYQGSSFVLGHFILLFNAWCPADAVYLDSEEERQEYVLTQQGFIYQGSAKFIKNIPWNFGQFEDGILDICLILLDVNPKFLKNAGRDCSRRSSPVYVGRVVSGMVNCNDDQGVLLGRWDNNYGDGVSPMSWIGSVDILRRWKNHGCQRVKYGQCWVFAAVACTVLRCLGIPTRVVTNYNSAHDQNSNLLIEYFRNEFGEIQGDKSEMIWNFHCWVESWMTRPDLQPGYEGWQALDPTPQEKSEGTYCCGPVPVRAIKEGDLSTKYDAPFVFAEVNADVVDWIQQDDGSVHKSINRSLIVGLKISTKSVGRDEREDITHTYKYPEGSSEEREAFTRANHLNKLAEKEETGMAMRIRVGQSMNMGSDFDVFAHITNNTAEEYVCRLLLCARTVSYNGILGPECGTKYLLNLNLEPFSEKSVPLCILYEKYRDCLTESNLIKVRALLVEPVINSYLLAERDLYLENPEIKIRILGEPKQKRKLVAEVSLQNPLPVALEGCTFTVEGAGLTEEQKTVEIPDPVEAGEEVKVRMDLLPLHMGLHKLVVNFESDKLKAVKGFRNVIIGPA
Summary of the method: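 IC50 derived from fluorescence slope between 20 and 30 min (λex 330 nm, λem 500 nm, 37 °C), expressed relative to a 2% DMSO control. Reaction: 10 nM recombinant human TG2, 4 μM dimethylcasein, 16.7 μM dansylcadaverine, 10 mM CaCl2 and glutathione, pH 8.0.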

[3] = Caco-2 permeability assay (CacoReady kit); assay type: in vitro ADME; details: human
Summary of the method: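 Compounds are tested on pre-formed Caco-2 barriers supplied as a ready-to-use kit, following the kit protocol, and the Papp value is derived to estimate intestinal absorption.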

Row | SMILES | logD [1] | IC50 [2] | Papp [3]
1 | O=C(/C=C/CC[C@H](NC(=O)c1ccc2c(c1)NCCC2)C(=O)Nc1cccn(CC(=O)NC23CC(C2)C3)c1=O)NC1CCCCC1 [III-149, (S,E)-N7-(1-(2-(bicyclo[1.1.1]pentan-1-ylamino)-2-oxoethyl)-2-oxo-1,2-dihydropyridin-3-yl)-N1-cyclohexyl-6-(1,2,3,4-tetrahydroquinoline-7-carboxamido)hept-2-enediamide] | 1 to 3 | 0.25 to 1.5 µM | < 1 ×10⁻⁶ cm/s
2 | COC(=O)/C=C/CC[C@H](NC(=O)c1ccnn1C)C(=O)Nc1cccn(CC(=O)NC2C3CC4CC(C3)CC2C4)c1=O (stereo partly drawn) [III-119, (S,E)-methyl 7-(1-(2-(2-adamantylamino)-2-oxoethyl)-2-oxo-1,2-dihydropyridin-3-ylamino)-6-(1-methyl-1H-pyrazole-5-carboxamido)-7-oxohept-2-enoate] | < 1 | < 0.025 µM | < 1 ×10⁻⁶ cm/s
3 | COC(=O)/C=C/CC[C@H](NC(=O)c1cnccn1)C(=O)Nc1cccn(CC(=O)NC2C3CC4CC(C3)CC2C4)c1=O (stereo partly drawn) [III-24, (S,E)-methyl 7-(1-(2-(2-adamantylamino)-2-oxoethyl)-2-oxo-1,2-dihydropyridin-3-ylamino)-7-oxo-6-(pyrazine-2-carboxamido)hept-2-enoate] | 1 to 3 | 0.025 to 0.25 µM | < 1 ×10⁻⁶ cm/s
4 | COC(=O)/C=C/CC[C@H](NC(=O)c1snnc1CO)C(=O)Nc1cccn(CC(=O)NC2C3CC4CC(C3)CC2C4)c1=O (stereo partly drawn) [III-175, (S,E)-methyl 6-(4-(hydroxymethyl)-1,2,3-thiadiazole-5-carboxamido)-7-(1-(2-(2-adamantylamino)-2-oxoethyl)-2-oxo-1,2-dihydropyridin-3-ylamino)-7-oxohept-2-enoate] | 1 to 3 | 0.25 to 1.5 µM | < 1 ×10⁻⁶ cm/s
5 | COC(=O)/C=C/CC[C@H](NC(=O)c1cncn1C)C(=O)Nc1cccn(CC(=O)NC23CC4(C)CC(C)(CC(C)(C4)C2)C3)c1=O [III-91, (S,E)-methyl 7-(1-(2-(3,5,7-trimethyl-1-adamantylamino)-2-oxoethyl)-2-oxo-1,2-dihydropyridin-3-ylamino)-6-(1-methyl-1H-imidazole-5-carboxamido)-7-oxohept-2-enoate] | 3 to 5 | < 0.025 µM | 1 to 10 ×10⁻⁶ cm/s
6 | COC(=O)/C=C/CC[C@H](NC(=O)c1oc2ccccc2c1C)C(=O)Nc1cccn(CC(=O)NC2C3CC4CC2CC(O)(C4)C3)c1=O (stereo partly drawn) [III-38, (S,E)-methyl 7-(1-(2-(5-hydroxyadamantan-2-amino)-2-oxoethyl)-2-oxo-1,2-dihydropyridin-3-ylamino)-6-(3-methylbenzofuran-2-carboxamido)-7-oxohept-2-enoate] | 1 to 3 | 0.025 to 0.25 µM | < 1 ×10⁻⁶ cm/s
7 | COC(=O)/C=C/CC[C@H](NC(=O)c1cnn(C)c1)C(=O)Nc1cccn(CC(=O)NC2C3CC4CC(C3)CC2C4)c1=O (stereo partly drawn) [III-130, (S,E)-methyl 7-(1-(2-(2-adamantylamino)-2-oxoethyl)-2-oxo-1,2-dihydropyridin-3-ylamino)-6-(1-methyl-1H-pyrazole-4-carboxamido)-7-oxohept-2-enoate] | 1 to 3 | 0.025 to 0.25 µM | < 1 ×10⁻⁶ cm/s
8 | COC(=O)/C=C/CC[C@H](NC(=O)c1cnc(NC(C)=O)s1)C(=O)Nc1cccn(CC(=O)NC23CC(C2)C3)c1=O [III-162, (S,E)-methyl 6-(2-acetamidothiazole-5-carboxamido)-7-(1-(2-(bicyclo[1.1.1]pentan-1-ylamino)-2-oxoethyl)-2-oxo-1,2-dihydropyridin-3-ylamino)-7-oxohept-2-enoate] | < 1 | 0.25 to 1.5 µM | < 1 ×10⁻⁶ cm/s
9 | COC(=O)/C=C/CC[C@H](NC(=O)c1ncns1)C(=O)Nc1cccn(CC(=O)NC23CC(C2)C3)c1=O [III-170, (S,E)-methyl 7-(1-(2-(bicyclo[1.1.1]pentan-1-ylamino)-2-oxoethyl)-2-oxo-1,2-dihydropyridin-3-ylamino)-7-oxo-6-(1,2,4-thiadiazole-5-carboxamido)hept-2-enoate] | < 1 | 0.025 to 0.25 µM | < 1 ×10⁻⁶ cm/s
10 | COC(=O)/C=C/CC[C@H](NC(=O)c1oc2ccccc2c1C)C(=O)Nc1cccn(CC(=O)NC23CC4CC(CC(F)(C4)C2)C3)c1=O [III-51, (S,E)-methyl 7-(1-(2-(3-fluoroadamantan-1-amino)-2-oxoethyl)-2-oxo-1,2-dihydropyridin-3-ylamino)-6-(3-methylbenzofuran-2-carboxamido)-7-oxohept-2-enoate] | 3 to 5 | < 0.025 µM | 1 to 10 ×10⁻⁶ cm/s
11 | COC(=O)/C=C/CC[C@H](NC(=O)c1oc2ccccc2c1C)C(=O)Nc1cccn(CC(=O)NC2C3CC4CC2CC(Br)(C4)C3)c1=O (stereo partly drawn) [III-41, (S,E)-methyl 7-(1-(2-(5-bromoadamantan-2-amino)-2-oxoethyl)-2-oxo-1,2-dihydropyridin-3-ylamino)-6-(3-methylbenzofuran-2-carboxamido)-7-oxohept-2-enoate] | 3 to 5 | < 0.025 µM | 1 to 10 ×10⁻⁶ cm/s
12 | CCOC(=O)/C=C/CC[C@H](NC(=O)c1oc2ccccc2c1C)C(=O)Nc1cccn(CC(=O)NC2C3CC4CC(C3)CC2C4)c1=O (stereo partly drawn) [III-89, (S,E)-ethyl 7-(1-(2-(2-adamantylamino)-2-oxoethyl)-2-oxo-1,2-dihydropyridin-3-ylamino)-6-(3-methylbenzofuran-2-carboxamido)-7-oxohept-2-enoate] | 3 to 5 | < 0.025 µM | 1 to 10 ×10⁻⁶ cm/s
13 | Cn1ccnc1C(=O)N[C@@H](CC/C=C/C(=O)c1ccccc1)C(=O)Nc1cccn(CC(=O)NC23CC(C2)C3)c1=O [III-157, (S,E)-N-(1-(1-(2-(bicyclo[1.1.1]pentan-1-ylamino)-2-oxoethyl)-2-oxo-1,2-dihydropyridin-3-ylamino)-1,7-dioxo-7-phenylhept-5-en-2-yl)-1-methyl-1H-imidazole-2-carboxamide] | 1 to 3 | 0.25 to 1.5 µM | < 1 ×10⁻⁶ cm/s
14 | Cn1cncc1C(=O)N[C@@H](CC/C=C/S(C)(=O)=O)C(=O)Nc1cccn(CC(=O)NC2C3CC4CC(C3)CC2C4)c1=O (stereo partly drawn) [III-100, (S,E)-N-(1-(1-(2-(2-adamantylamino)-2-oxoethyl)-2-oxo-1,2-dihydropyridin-3-ylamino)-6-(methylsulfonyl)-1-oxohex-5-en-2-yl)-1-methyl-1H-imidazole-5-carboxamide] | 1 to 3 | 0.025 to 0.25 µM | < 1 ×10⁻⁶ cm/s
15 | COC(=O)/C=C/CC[C@H](NC(=O)c1cc(Br)c(Br)s1)C(=O)Nc1cccn(CC(=O)NC2C3CC4CC(C3)CC2C4)c1=O (stereo partly drawn) [III-19, (S,E)-methyl 6-(4,5-dibromothiophene-2-carboxamido)-7-(1-(2-(2-adamantylamino)-2-oxoethyl)-2-oxo-1,2-dihydropyridin-3-ylamino)-7-oxohept-2-enoate] | 3 to 5 | < 0.025 µM | 1 to 10 ×10⁻⁶ cm/s
16 | COC(=O)/C=C/CC[C@H](NC(=O)C1CN2CCC1CC2)C(=O)Nc1cccn(CC(=O)NC2C3CC4CC(C3)CC2C4)c1=O (stereo partly drawn) [III-32, (S,E)-methyl 7-(1-(2-(2-adamantylamino)-2-oxoethyl)-2-oxo-1,2-dihydropyridin-3-ylamino)-7-oxo-6-(quinuclidine-3-carboxamido)hept-2-enoate] | 3 to 5 | 0.025 to 0.25 µM | < 1 ×10⁻⁶ cm/s
